1 molecule from US20250283049A1, “AGENT FOR CULTURING ORGANOID IN ABSENCE OF EXTRACELLULAR MATRIX” (KEIO UNIVERSITY, priority 2022, published 2025) can be followed below.

What all share (type): cell-based
One test relates to AXIN2 gene. The experiment in a line: AXIN2 gene expression by quantitative real-time PCR in human large intestine-derived organoids. The conditions noted are these: absence of Matrigel; Lats-IN 10 μM. On the procedure:
Human small intestine-derived organoids and human large intestine-derived organoids were cultured in the absence or presence of Matrigel (registered trademark) and in the absence or presence of Lats-IN (final concentration: 10 μM), and the expression level of the AXIN2 gene, whose expression is regulated by Wnt, was examined by quantitative real-time PCR.
FIG. 16 presents graphs showing the results of quantitative real-time PCR.

For test [1], the system named is phosphorylated YAP (Ser127). The experiment in a line: Examination of phosphorylation of YAP by Western blotting in human small intestine-derived organoids. The conditions noted are these: 10 μM; in both presence and absence of Matrigel; compared to when Lats-IN is absent. On the procedure:
Human small intestine-derived organoids were cultured in the absence and presence of Matrigel (registered trademark) and in the absence and presence of a LATS kinase inhibitor (final concentration: 10 μM), and phosphorylation of YAP was confirmed by Western blotting.
In FIG. 4, “pYAP” indicates phosphorylated YAP, and “YAP” indicates total YAP (the sum of phosphorylated YAP and non-phosphorylated YAP). The antibody against phosphorylated YAP used was phospho-YAP (Ser127) (#4911, Cell Signaling Technology, Inc.). The antibody against total YAP used was total-YAP (#14074, Cell Signaling Technology, Inc.).

Test [2] deals with crypts isolated from human large intestine-derived tissue. The experiment in a line: Organoid establishment from isolated crypts in absence of Matrigel; time-course ATP and passaging. The conditions noted are these: Lats-IN 10 μM, without Lats-IN died after second passage. On the procedure: Crypts were isolated from human small intestine- and large intestine-derived tissues. The isolated crypts were cultured in the absence of Matrigel (registered trademark) and in the absence or presence of Lats-IN (final concentration: 10 μM).
FIG. 10 is a graph showing the results of a time-course measurement of proliferation of the crypts isolated from the human large intestine-derived tissue over time. The cell proliferation was measured by measuring ATP using a commercially available kit (product name “CellTiter-Glo 3D,” Promega Corporation). The vertical axis of the graph represents luminescence intensity (relative value) indicating the amount of ATP present.

Test [3] has as its system human small intestine-derived organoids dissociated into single cells. The experiment in a line: Organoid formation from single cells. An excerpt: Therefore, to examine whether signals from cell-to-cell interactions are involved in cell proliferation mediated by transcriptional regulation of YAP-TEAD by LATS inhibition, human small intestine-derived organoids were dissociated into single cells and then observed organoid formation from the single cells.
FIG. 9 presents representative photographs showing the results of organoid formation from single cells in the presence or absence of Matrigel (registered trademark) and in the absence or presence of Lats-IN (final concentration: 10 μM). In FIG. 9, the arrowheads indicate cells or organoids. In addition, D1, D4, and D7 indicate the first, fourth, and seventh days, respectively, after the start of culture. […] In addition, the percentage (%) of cells that formed organoids among the seeded single cells is also shown.

Test [4] has as its system human small intestine-derived organoids. Description: Immunostaining for localization of YAP and Ki67. The conditions noted are these: 10 μM Lats-IN; in both presence and absence of Matrigel; approximately 10% without Lats-IN. As for the experimental part:
(§1) Human small intestine-derived organoids and human large intestine-derived organoids were cultured in the absence and presence of Matrigel (registered trademark) and in the absence and presence of a LATS kinase inhibitor (final concentration: 10 μM) in the same manner as in Experimental Example 2. Subsequently, immunostaining was performed to confirm the localization of YAP. In addition, Ki67, a marker for cell proliferation, was detected to confirm proliferating cells.
The fields of view in the second, third, and fourth panels from the top correspond to the area enclosed in the square in the uppermost panel.
The fields of view in the second, third, and fourth panels from the top correspond to the area enclosed in the square in the uppermost panel. The scale bar represents 50 μm. […]
(§2) FIG. 7 is a graph summarizing the results of FIGS. 5 and 6. As a result, in both the presence and absence of Matrigel (registered trademark), in the absence of Lats-IN, YAP was localized in the cytoplasm, and when the number of Ki67-positive cells, which indicates cell proliferation, was counted, the percentage of Ki67-positive cells was approximately 10% of the total cells. In contrast, in both the presence and absence of Matrigel (registered trademark), in the presence of Lats-IN, the number of cells in which YAP was localized in the nucleus was counted. […]

For test [5], the system named is human large intestine-derived organoids. The experiment in a line: Immunostaining for localization of YAP and Ki67. The conditions noted are these: 10 μM Lats-IN; in both presence and absence of Matrigel; approximately 10% without Lats-IN. As for the experimental part:
as §1
The leftmost column of FIG. 6 presents photographs showing the results of immunostaining of the human large intestine-derived organoids cultured in the presence of Matrigel (registered trademark) and in the absence of Lats-IN (Ctrl). […]
as §2

Take `O=C(N=c1sccn1Cc1ccccc1)c1c[nH]c2ncccc12` [Lats-IN]: in the test with AXIN2 gene, the “expression level of AXIN2” value was “increased to a level equivalent to that in the presence of Matrigel”. In test [1], the “phosphorylation of YAP” value was “significantly suppressed”. Also, the “passaging and proliferation of isolated crypts (organoid establishment)” value in test [2] is listed as “able to undergo passage almost continuously without cessation of cell proliferation”. Also, the “organoid formation from single cells” value in test [3] (absence of Matrigel, presence of Lats-IN 10 μM, up to day 7) is “proliferated from single cells and formed organoids”. Besides, in test [3] (presence of Matrigel and Lats-IN compared with absence of Matrigel and presence of Lats-IN), the “percentage of cells that formed organoids” value is “higher”. The “percentage of Ki67-positive cells” value in test [4] and in test [5] was ≥ 50 % of the total cells in each case.
